Measured values taken from US20130309380A1, “METHODS FOR PRESERVING FRESH PRODUCE” (NatureSeal, Inc., priority 2003, published 2013).

Columns and labels:
[1] = test system: Bramley apples; assay: Evaluation of sliced Bramley apples: appearance by visual inspection, firmness by bending
Procedure: The firmness of the produce in Example 11a were evaluated by bending produce samples. Appearance was evaluated by visual inspection. The moisture was evaluated by measuring the amount of water the produce released.
Whole Bramley apples free from blemishes or bruises, were rinsed with water, sanitized with a sodium hypochlorite solution having 100 parts per million available chlorine, for two minutes, then peeled, cored, and sliced. The sliced apples were dipped into a fresh produce preservative solution that contained 5.12% strontium ascorbate; the fresh produce preservative solution contained 4.12% ascorbic acid and 1.79% […], for about 30 to 60 seconds. The apples were then drained in a colander for one minute. The apple slices and the colander were placed in 500 micron plastic bags from SunSet Packaging, stored at 4° C. and evaluated several times over a 15 day period. Water which collected in the plastic bag was removed and weighed.
For comparison, similarly prepared apple slices were placed in one of several solutions that contained either: 4.3% ascorbic acid and 1.13% hydrated MgCO3, specifically 4MgCO3.Mg(OH)25H2O or a 5.0% w/w aqueous solution of calcium ascorbate dihydrate, having a pH of 7.2; or a 5.3% w/w solution, of 4.12% ascorbic acid and 1.17% calcium carbonate,; or 6% ascorbic acid having a pH of 2.3; or 48 g ascorbic acid, 48 g citric acid, 16 g CaCl2 and 48 g NaCl in 800 g water, with a pH of 1.2; or 6% w/w citric acid and 6% w/w ascorbic acid; or 4.64% sodium ascorbate having 4.13% ascorbic acid and 1.18% NaCo3.
Bramley apples were preserved with the fresh produce preservative as in Example 11a except that the preservative solution contained lithium ascorbate. The lithium ascorbate solution was prepared by adding 7.35 grams of lithium carbonate and 35 grams ascorbic acid to 800 grams water.
For comparison, apple slices were placed in one of several comparative solutions: a 5.0% w/w aqueous solution of calcium ascorbate dihydrate containing 42.5 grams of calcium ascorbate dihydrate and 800 grams water with a pH of 7; a 5.3% w/w solution of calcium ascorbate containing 44.94 grams of mixture of 9.95 grams calcium carbonate and 35 grams ascorbic acid in 800 grams water with a pH of 5.5; a comparative solution, containing 48 g ascorbic acid, 48 g citric acid, 16 g CaCl2, 48 g NaCl and 800 g water with a pH of 1.2; a comparative solution of sodium ascorbate containing 28.45 grams of sodium carbonate 35 grams ascorbic acid, 800 grams water having a pH of 6.8; a comparative solution of calcium ascorbate containing 8.75 grams of calcium carbonate, 35 grams ascorbic acid, and to 800 grams water; a comparative solution of calcium ascorbate containing 9.95 grams of calcium carbonate, 35 grams ascorbic acid, and 765 grams water; a comparative solution of magnesium ascorbate containing 9.66 grams of hydrated magnesium carbonate 4MgCO3.Mg(OH)25H2O, 35 grams ascorbic acid, 765 grams water, having a pH of 6.4; and a comparative solution of zinc ascorbate containing 35 grams ascorbic acid, 12.74 grams zinc carbonate and 765 grams water, with a pH of 5.5. The apple slices were evaluated on day five.

[2] = test system: Hass avocadoes; assay: Evaluation of sliced Hass avocadoes preserved with fresh produce preservative (scores)
Procedure: (§1) The texture, flavor, and moistness of the fruit were evaluated by tasting fruit samples. The color and/or appearance was also evaluated by visual inspection. The color, texture, moistness and flavor were then evaluated according to a scale of either 1 to 10, with 10 being the value assigned to a freshly cut piece of comparative fruit or vegetable. A value of less than 7 is not acceptable.
(§2) Whole Red Delicious apples were rinsed with tap water, sanitized with a sodium hypochlorite solution containing 100 ppm chlorine, then cored and sliced. The apple slices were immersed in water for 0.5 to 2 minutes. Then the apple slices were dipped into produce preservative solution containing 4% ascorbic acid and 1.59% K2CO3 having a pH 5.69 for 1 minute. The slices were removed from the solution and drained for 1-2 minutes, sealed in polyethylene bags, and stored at 2-5° C. For controls, sliced apples either not treated or were dipped into either 4% ascorbic acid with 0.66% NaOH to adjust the pH to 4.45. For comparison, sliced apples were dipped into a solution containing 4% ascorbic acid and 1.22% Na2CO3 and having a pH of 5.58.
Hass avocadoes were preserved with the fresh produce preservative as in Example 1a, except that the preservative solution contained 9.3% ascorbic acid and 5.7% MnCl2.4H2O.
Sliced Hass avocadoes were preserved with the fresh produce preservative as in Example la, except that the preservative solution contained 6.5% ascorbic acid and 3.5% potassium chloride. For control, a 7% ascorbic acid solution was used.

[3] = test system: Red Delicious apples; assay: Evaluation of sliced Red Delicious apples preserved with fresh produce preservative (scores); details: for Color / Flavor / Moistness / Texture: scale 0-10; for color/appearance score: scale to 10
Procedure: as §1, §2
The apples were evaluated and scored on a scale of 0-10 at time intervals. A score of 10 means that the fruit's color and appearance is as good as fresh cut fruit. A score of 7 is the minimum acceptable appearance. Hardness was measured with QTS25.
Red Delicious apples and Granny Smith apples were preserved with the fresh produce preservative as in Example 1 a, except that the preservative solution contained 4% ascorbic acid and 1% Li2CO3.

O=C1O[C@H]([C@@H](O)CO)C(O)=C1O [Ascorbic Acid, ascorbic acid]
Texture ([1]; 28 hr at 4° C.): Firm
Texture ([1]; 52 hr at 4° C.): Firm
Appearance (visual inspection) ([1]; 191 hr at 4° C.): brown
Texture ([1]; 191 hr at 4° C.): soft
color/appearance score ([2]; 1 day, scale to 10 (Table 6), listed as 6% Ascorbic Acid control, 6% Ascorbic Acid control): 6
color/appearance score ([2]; 1 day, scale to 10 (Table 6), listed as 7% Ascorbic Acid control, 7% Ascorbic Acid control): 7
color/appearance score ([2]; 1 day, scale to 10 (Table 6), listed as 8% Ascorbic Acid control, 8% Ascorbic Acid control): 8.5
color/appearance score ([2]; 1 day, scale to 10 (Table 7)): 7
color/appearance score ([2]; 2 days, scale to 10 (Table 7)): 6
color/appearance score ([2]; 4 days, scale to 10 (Table 6)): 6
Color ([3]; 0 hour): 10
Flavor ([3]; 0 hour): 5
Moistness ([3]; 0 hour): 10
Texture ([3]; 0 hour): 10
Color ([3]; 1 week at 2-5° C.): 9.6
Flavor ([3]; 1 week at 2-5° C.): 7
Moistness ([3]; 1 week at 2-5° C.): 10
Texture ([3]; 1 week at 2-5° C.): 7.8
color/appearance score ([3]; 1 week): 6
Color ([3]; 2 week at 2-5° C.): 8.4
Flavor ([3]; 2 week at 2-5° C.): 7
Moistness ([3]; 2 week at 2-5° C.): 9
Texture ([3]; 2 week at 2-5° C.): 7
Color ([3]; 1 day at 2-5° C.): 10
Flavor ([3]; 1 day at 2-5° C.): 8
Moistness ([3]; 1 day at 2-5° C.): 10
Texture ([3]; 1 day at 2-5° C.): 9.8
color/appearance score ([3]; 24 hours (app)): 9
color/appearance score ([3]; 3 days): 9
